Experimental data from paper PMC8772380, “Structural and Biochemical Investigation of Class I Ribonucleotide Reductase from the Hyperthermophile Aquifex aeolicus” (Biochemistry, 2021).
Each block holds one molecule with its values, some of them ahead of it.

T1: A. aeolicus RNR (AaR1 + AaR2) (Aquifex aeolicus, UniProt O66503)
T1 construct: gene nrdA; full length AaR1 and AaR2 (construct lacking the 346-residue intein, equal to mature R2; natural precursor contains the intein), N-terminal His tags with thrombin site, E. coli expression; R2 42 kDa; with Ribonucleoside-diphosphate reductase subunit beta
T1 sequence (O66503 1-801): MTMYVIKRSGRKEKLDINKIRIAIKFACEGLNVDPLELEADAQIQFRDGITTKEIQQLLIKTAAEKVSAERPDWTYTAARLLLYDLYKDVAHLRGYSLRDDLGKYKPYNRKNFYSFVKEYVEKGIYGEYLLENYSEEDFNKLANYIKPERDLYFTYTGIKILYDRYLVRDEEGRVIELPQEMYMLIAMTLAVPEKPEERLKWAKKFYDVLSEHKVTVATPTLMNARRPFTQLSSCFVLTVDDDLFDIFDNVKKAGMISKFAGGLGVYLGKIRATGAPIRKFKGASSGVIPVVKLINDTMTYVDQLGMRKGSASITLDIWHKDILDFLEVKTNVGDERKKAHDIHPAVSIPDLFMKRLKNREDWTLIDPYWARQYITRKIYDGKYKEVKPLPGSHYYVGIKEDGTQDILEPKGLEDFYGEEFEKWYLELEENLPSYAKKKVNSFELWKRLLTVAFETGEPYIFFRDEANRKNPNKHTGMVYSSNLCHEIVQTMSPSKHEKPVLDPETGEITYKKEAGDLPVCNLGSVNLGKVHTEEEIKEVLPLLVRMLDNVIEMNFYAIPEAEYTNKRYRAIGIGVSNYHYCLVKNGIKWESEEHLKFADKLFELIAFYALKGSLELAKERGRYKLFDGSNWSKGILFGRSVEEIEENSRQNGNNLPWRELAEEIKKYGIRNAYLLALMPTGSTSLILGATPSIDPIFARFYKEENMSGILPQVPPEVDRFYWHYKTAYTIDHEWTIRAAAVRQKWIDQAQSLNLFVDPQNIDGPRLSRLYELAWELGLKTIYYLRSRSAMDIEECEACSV
T1 sequence (O67475 1-229 partner): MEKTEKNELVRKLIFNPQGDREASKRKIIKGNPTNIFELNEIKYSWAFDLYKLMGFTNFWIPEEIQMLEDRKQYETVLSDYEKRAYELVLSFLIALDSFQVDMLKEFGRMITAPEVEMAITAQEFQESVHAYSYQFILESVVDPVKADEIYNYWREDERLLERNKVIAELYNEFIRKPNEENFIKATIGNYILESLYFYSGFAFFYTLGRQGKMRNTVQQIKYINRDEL
T1 sequence (O67475 576-696 partner): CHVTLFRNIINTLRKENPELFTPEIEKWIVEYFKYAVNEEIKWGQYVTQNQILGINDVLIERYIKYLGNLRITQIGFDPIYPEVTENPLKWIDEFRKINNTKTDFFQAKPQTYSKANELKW

T2: AaR1 (Aquifex aeolicus, UniProt O66503)
T2 construct: gene nrdA; full length, N-terminal His tag and thrombin site (pET-28a), expressed in E. coli BL21(DE3); 93 kDa; monomer-dimer equilibrium
T2 sequence (O66503 1-801): T1 sequence (O66503 1-801)

B1: Aquifex aeolicus ribonucleotide reductase R2 protein (β-subunit), from a construct lacking the intein (enzyme, UniProt O67475 1-229, looked up)
chain: MEKTEKNELVRKLIFNPQGDREASKRKIIKGNPTNIFELNEIKYSWAFDLYKLMGFTNFWIPEEIQMLEDRKQYETVLSDYEKRAYELVLSFLIALDSFQVDMLKEFGRMITAPEVEMAITAQEFQESVHAYSYQFILESVVDPVKADEIYNYWREDERLLERNKVIAELYNEFIRKPNEENFIKATIGNYILESLYFYSGFAFFYTLGRQGKMRNTVQQIKYINRDELCHVTLFRNIINTLRKENPELFTPEIEKWIVEYFKYAVNEEIKWGQYVTQNQILGINDVLIERYIKYLGNLRITQIGFDPIYPEVTENPLKWIDEFRKINNTKTDFFQAKPQTYSKANELKW
notes: Class I ribonucleotide reductase small (β) subunit R2, Aquifex aeolicus; Leu229 is joined to Cys230; The natural gene product carries the intein between Leu229 and Cys230; Theoretical mass of the polypeptide 42 kDa. numbers count on: the mature protein (intein removed); Homodimer in the crystal, GEMMA and SEC; No removal of the His tag is described; also called AaR2; mature AaR2; source: E. coli …
B2: Aquifex aeolicus ribonucleotide reductase R1 protein (α-subunit) (enzyme, UniProt O66503 1-801, looked up)
chain: T1 sequence (O66503 1-801)
notes: Class I ribonucleotide reductase large (α) subunit R1, NrdAh subclass, Aquifex aeolicus; full length, synthetic gene (Genscript) in pET-28a(+) with N-terminal His tag and thrombin cleavage site; theoretical mass of the polypeptide 93 kDa; Homodimer in the crystal; monomer-dimer equilibrium in GEMMA and SEC; No removal of the His tag by thrombin is described; also called AaR1; NrdAh; source: E. …

How the values were obtained:
[1] = target: T1, A. aeolicus RNR (AaR1 + AaR2); assay: HPLC NDP reduction assay; assay type: biochemical; conditions: pH 6.8, 79 °C
AaR1 = target: T2, AaR1; assay: GEMMA, effector-induced R1 dimerization; assay type: binding; conditions: allosteric; 100 µM dATP, equimolar Mg acetate, 300 mM ammonium acetate pH 7.5, preincubated at 78 °C
[2] = target: B2; assay: SEC; equimolar AaR1 and AaR2, 20 μM, with ATP and MgCl2; Superdex 200 PC 3.2/30, 20 mM Hepes pH 7.4, 75 mM NaCl, 0.2 mM TCEP; preincubated 5 min at 70 °C, run at 7 °C; top peak fraction analysed by SDS-PAGE; conditions: both partners purified
[3] = target: the molecule itself; assay: GEMMA (gas-phase electrophoretic mobility macromolecule analysis); individual R1 or R2 at 0.25 μM, 300 mM ammonium acetate pH 7.5, 0.005% Tween 20, without or with 300 μM ATP or 100 μM dATP (equimolar magnesium acetate); preincubated 2 min at 78 °C, analysed at room temperature

- HPLC NDP reduction assay ([1]; allosteric activator, 2 mM ATP, four substrates 0.5 mM each, 10 mM DTT, 10 mM Mg acetate, titration with CDP in Figure S3): ATP induces the reduction of CDP and UDP
Molecule: Nc1ncnc2c1ncn2[C@@H]1O[C@H](COP(=O)(O)OP(=O)(O)OP(=O)(O)O)[C@@H](O)[C@H]1O [ATP]

Molecule: Nc1ncnc2c1ncn2[C@H]1C[C@H](O)[C@@H](COP(=O)(O)OP(=O)(O)OP(=O)(O)O)O1 [dATP]
- GEMMA, effector-induced R1 dimerization (AaR1): Allosteric effectors stimulated R1 dimerization, although complete conversion to dimers was not obtained

Molecule: Nc1nc2c(ncn2[C@@H]2O[C@H](COP(=O)(O)OP(=O)(O)O)[C@@H](O)[C@H]2O)c(=O)[nH]1 [GDP]
- HPLC NDP reduction assay ([1]; 0.5 mM GDP with CDP, ADP and UDP, dTTP effector 2 mM, 10 mM DTT): specific activities for the conversion of CDP, UDP, GDP, and ADP to their corresponding dNDPs

Molecule: Nc1nc2c(ncn2[C@H]2C[C@H](O)[C@@H](COP(=O)(O)OP(=O)(O)OP(=O)(O)O)O2)c(=O)[nH]1 [dGTP]
- HPLC NDP reduction assay ([1]; allosteric effector, s-site, induces ADP reduction, 2 mM dGTP, four substrates 0.5 mM each): dTTP and dGTP induce the reduction of GDP and ADP, respectively

Molecule: B1
- stoichiometry N [2]: 1 AaR1:AaR2
- stoichiometry N [3]: 2

Molecule: B2
- stoichiometry N [3]: 2
